*1 amine or outer side, *2 acyl side, *3 side chain or, on linkers, in order; H or OH if unused. Where a SMILES comes first, the peptide text is derived from it. Bridges are numbered along the chain shown (N, C = ends). [ ]: non-standard residue; d: D form. Ala(1-bicyclo(1.1.1)pentyl) = N[C@@H](CC12CC(C1)C2)C(=O)O; NMeNva(5-imidazol-1-yl) = CN[C@@H](CCCn1ccnc1)C(=O)O; Phe(4-guanidino) = N=C(N)Nc1ccc(C[C@H](N)C(=O)O)cc1; Ala(pyrimidin-5-yl) = N[C@@H](Cc1cncnc1)C(=O)O; NMe3Pal(6-Me) = CN[C@@H](Cc1ccc(C)nc1)C(=O)O; X6 = O=C([C@H](Cc1cnn(C2COC2)c1)N[*:1])[*:2]; Phe(4-CH2NH2) = NCc1ccc(C[C@H](N)C(=O)O)cc1; X25 = O=C([C@H](Cc1ccc(F)nc1)N[*:1])[*:2]; X57 = Cn1ccc(C[C@H](N[*:1])C(=O)[*:2])n1; X10 = CS(=O)(=O)CCCCN(CC(=O)[*:2])[*:1]; Nle(5,5-F2) = CC(F)(F)CC[C@H](N)C(=O)O; X2 = O=C([C@H](Cc1ccccc1F)O[*:1])[*:2]; 1Nal = N[C@@H](Cc1cccc2ccccc12)C(=O)O; Ala(4-THP) = N[C@@H](CC1CCOCC1)C(=O)O; Phe(2-F) = N[C@@H](Cc1ccccc1F)C(=O)O; NMe3Pal = CN[C@@H](Cc1cccnc1)C(=O)O; X1 = O=C(C12CC(CN[*:1])(C1)C2)[*:2]; NMeLys(Me) = CNCCCC[C@H](NC)C(=O)O; X17 = O=C([C@H](CCCCF)N[*:1])[*:2]; Ala(cPr) = N[C@@H](CC1CC1)C(=O)O; NMeF = CN[C@@H](Cc1ccccc1)C(=O)O; PhLac = O=C(O)[C@@H](O)Cc1ccccc1; X4 = O=C([C@H](CCCF)N[*:1])[*:2]; 3Pal = N[C@@H](Cc1cccnc1)C(=O)O; d(αMeC) = C[C@@](N)(CS)C(=O)O; Ahp(2) = CCCCC[C@H](N)C(=O)O; Cba = N[C@@H](CC1CCC1)C(=O)O; hLeu = CC(C)CC[C@H](N)C(=O)O; hLys = NCCCCC[C@H](N)C(=O)O; NMeAbu = CC[C@H](NC)C(=O)O; αMeC = C[C@](N)(CS)C(=O)O; NMeA = CN[C@@H](C)C(=O)O; Nle = CCCC[C@H](N)C(=O)O; Nva = CCC[C@H](N)C(=O)O

In the first experiment the target is KRAS-G12D protein (Homo sapiens, UniProt P01116, G12D). Briefly: SOS-mediated nucleotide exchange assay (BODIPY-GDP / Tb-streptavidin TR-FRET). The format is biochemical.
Chain of KRAS-G12D protein (P01116 1-188 isoform P01116-2 G12D): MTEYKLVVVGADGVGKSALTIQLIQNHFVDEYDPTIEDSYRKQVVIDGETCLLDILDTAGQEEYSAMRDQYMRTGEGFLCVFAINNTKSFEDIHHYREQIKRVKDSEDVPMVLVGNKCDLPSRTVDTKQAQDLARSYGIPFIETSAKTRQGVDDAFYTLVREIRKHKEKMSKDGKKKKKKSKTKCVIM
Details: not given
(TR-FRET usually uses a lanthanide donor and a delayed reading to cut background.)
One may read the EC50 as the concentration needed to bring the measured effect to its halfway point. Low readings indicate an effect from little substance, high ones a need for much substance. `CCCC[C@@H]1NC(=O)[C@H](Cc2cnc(C#N)nc2)NC(=O)[C@H](C)N(C)C(=O)[C@H](Cc2ccccc2)OC(=O)C23CC(CNC(=O)[C@H](Cc4ccccc4)N(C)C(=O)[C@H](CCCC)NC(=O)[C@H](Cc4ccccc4F)NC1=O)(C2)C3` (single isomer, unassigned) [compound 315, cyclo(FLac-NMeA-AlaPyrim4CN-Nle-Phe2F-Nle-NMeF-amBCP)]: the EC50 turned out to be 5.28 nM. Still for that read-out and setting: next, `CC(C)CC[C@@H]1NC(=O)[C@H](Cc2ccccc2F)NC(=O)[C@H](CCCF)NC(=O)[C@H](Cc2cncnc2)NC(=O)[C@H](C)N(C)C(=O)[C@H](Cc2ccccc2)OC(=O)C23CC(CNC(=O)[C@H](Cc4ccccc4)N(C)C1=O)(C2)C3` [compound 133, cyclo(FLac-NMeA-PyrimAla-NvaF-Phe2F-hL-NMeF-amBCP)] (cyclo([NMeA][Ala(pyrimidin-5-yl)][X4][Phe(2-F)][hLeu][NMeF][X1][PhLac])): 7.79 nM; `CCCC[C@@H]1NC(=O)[C@H](Cc2ccc(F)nc2)NC(=O)[C@H](C)N(C)C(=O)[C@H](Cc2ccccc2)OC(=O)C23CC(CNC(=O)[C@H](Cc4ccccc4)N(C)C(=O)[C@H](CCC)NC(=O)[C@H](Cc4ccccc4F)NC1=O)(C2)C3` [compound 234, cyclo(FLac-NMeA-4F3Pal-Nle-Phe2F-Nva-NMeF-amBCP)] (cyclo([NMeA][X25][Nle][Phe(2-F)][Nva][NMeF][X1][PhLac])): 997 nM; `CCCC[C@@H]1NC(=O)[C@H](Cc2ccc(O)cc2)NC(=O)[C@H](CC2CCOCC2)NC(=O)[C@H](Cc2ccc(NC(=N)N)cc2)NC(=O)[C@H](CCCNC(=N)N)NC(=O)[C@H](Cc2cccc3ccccc23)NC(=O)CSC[C@H](C(=O)O)NC(=O)[C@H](Cc2ccccc2)N(C)C1=O` [compound 147, cyclo(INal-R-Phe4Gn-AlaTHP4-Y-Nle-NMeF-dC-ClAc)] ({CH2CO}-[1Nal]R[Phe(4-guanidino)][Ala(4-THP)]Y[Nle][NMeF][dC]-OH; thioether N-8): 512 nM. Compound `CCCC[C@@H]1NC(=O)[C@H](Cc2cccnc2)NC(=O)CN(CCCCS(C)(=O)=O)C(=O)[C@H](Cc2ccccc2)OC(=O)C23CC(CNC(=O)[C@H](Cc4cccnc4)N(C)C(=O)[C@H](CCCC)NC(=O)[C@H](Cc4ccccc4F)NC1=O)(C2)C3` [compound 407, cyclo(FLac-NOHmsbGly-3Pal-Nle-Phe2F-Nle-NMe3Pal-amBCP)] (cyclo([3Pal][Nle][Phe(2-F)][Nle][NMe3Pal][X1][PhLac][X10])) gave an EC50 of 367 nM. Consider `CCCC[C@@H]1NC(=O)[C@H](Cc2cccnc2)NC(=O)[C@H](CC)N(C)C(=O)[C@H](Cc2ccccc2)OC(=O)C23CC(CNC(=O)[C@H](Cc4cccnc4)N(C)C(=O)[C@H](CCCC)NC(=O)[C@H](Cc4ccccc4F)NC1=O)(C2)C3` [compound 404, cyclo(FLac-NMeAbu-3Pal-Nle-Phe2F-Nle-NMe3Pal-amBCP)] (cyclo([3Pal][Nle][Phe(2-F)][Nle][NMe3Pal][X1][PhLac][NMeAbu])), for which a half-maximal effect (EC50) was put at 29 nM.

`CCCC[C@@H]1NC(=O)[C@H](Cc2cncnc2)NC(=O)[C@H](CCCn2ccnc2)N(C)C(=O)[C@H](Cc2ccccc2)OC(=O)C23CC(CNC(=O)[C@H](Cc4cccnc4)N(C)C(=O)[C@H](CCCC)NC(=O)[C@H](Cc4ccccc4F)OC1=O)(C2)C3` [compound 246, cyclo(FLac-NMeNvalmid-PyrimAla-Nle-F2FLac-Nle-NMe3Pal-amBCP)] (cyclo([NMe3Pal][X1][PhLac][NMeNva(5-imidazol-1-yl)][Ala(pyrimidin-5-yl)][Nle][X2][Nle])) registered an EC50 of 1160 nM.

Compound `CCCC[C@@H]1NC(=O)[C@H](Cc2ccccc2F)NC(=O)[C@H](CCCCF)NC(=O)[C@H](Cc2cncnc2)NC(=O)[C@H](C)N(C)C(=O)[C@H](Cc2ccccc2)OC(=O)C23CC(CNC(=O)[C@H](Cc4ccccc4)N(C)C1=O)(C2)C3` [compound 130, cyclo(FLac-NMeA-PyrimAla-NleF-Phe2F-Nle-NMeF-amBCP)] (cyclo([NMeA][Ala(pyrimidin-5-yl)][X17][Phe(2-F)][Nle][NMeF][X1][PhLac])) yielded an EC50 of 2.43 nM. Same read-out and setting: next, `CC(C)CC[C@@H]1NC(=O)[C@H](Cc2ccccc2F)NC(=O)[C@H](CC2CC2)NC(=O)[C@H](Cc2cccnc2)NC(=O)[C@H](C)N(C)C(=O)[C@H](Cc2ccccc2)OC(=O)C23CC(CNC(=O)[C@H](Cc4cccnc4F)N(C)C1=O)(C2)C3` (single isomer, unassigned) [compound 297, cyclo(FLac-NMeA-3Pal-cPrA-Phe2F-hL-NMe3Pal2F-amBCP)]: 4 nM.

`C[C@H]1C(=O)N[C@@H](Cc2cnn(C3COC3)c2)C(=O)N[C@@H](CC2CC2)C(=O)N[C@@H](Cc2ccccc2F)C(=O)N[C@@H](CCC(C)(F)F)C(=O)N(C)[C@@H](Cc2ccccc2)C(=O)NCC23CC(C2)(C3)C(=O)O[C@@H](Cc2ccccc2)C(=O)N1C` [compound 291, cyclo(FLac-NMcA-AlaPyzlOx-cPrA-Phe2F-Nle3F2-NMeF-amBCP)] (cyclo([Ala(cPr)][Phe(2-F)][Nle(5,5-F2)][NMeF][X1][PhLac][NMeA][X6])) displayed an EC50 of 1 nM.

`CCCCC[C@@H]1NC(=O)[C@H](Cc2ccc(OC)cc2)NC(=O)[C@H](CC2CCC2)NC(=O)[C@H](Cc2ccc(NC(=N)N)cc2)NC(=O)[C@H](CCCCNC)N(C)C(=O)[C@H](Cc2ccccc2)NC(=O)CSC[C@@](C)(C(N)=O)NC(=O)[C@H](Cc2ccccc2)N(C)C1=O` [compound 360, cyclo(F-NMeLysMe-Phe4Gn-cBuA-TyrOMe-Ahp-NMeF-aMeCl-ClAc)] ({CH2CO}-F[NMeLys(Me)][Phe(4-guanidino)][Cba]Y(Me)[Ahp(2)][NMeF][αMeC]-NH2; thioether N-8) showed an EC50 of 291 nM. The same measure, in the same setting: next, `CCCC[C@@H]1NC(=O)[C@H](Cc2cccnc2)NC(=O)[C@H](C)N(C)C(=O)[C@H](Cc2ccccc2)OC(=O)C23CC(CNC(=O)[C@H](Cc4cccnc4)N(C)C(=O)[C@H](CCC(C)C)NC(=O)[C@H](Cc4ccccc4F)NC1=O)(C2)C3` [compound 124, cyclo(FLac-NMeA-3Pal-Nle-Phe2F-hL-NMe3Pal-amBCP)] (cyclo([3Pal][Nle][Phe(2-F)][hLeu][NMe3Pal][X1][PhLac][NMeA])): 2.17 nM. The compound `CCCC[C@@H]1NC(=O)[C@H](Cc2ccc(CNC(C)=O)cc2)NC(=O)[C@H](CCCNC(=N)N)NC(=O)[C@H](Cc2cccc3ccccc23)NC(=O)CSC[C@](C)(C(=O)O)NC(=O)[C@H](Cc2ccccc2)N(C)C(=O)[C@H](CCCC)NC(=O)[C@H](Cc2ccc(O)cc2)NC1=O` [compound 145, cyclo(INal-R-Phe4CH2NHAc-Nle-Y-Nle-NMeF-daMeC-ClAc)] ({CH2CO}-[1Nal]R[Phe(4-CH2NH2)](Ac)[Nle]Y[Nle][NMeF][d(αMeC)]-OH; thioether N-8) returned an EC50 of 7030 nM. The same measure, in the same setting: next, `CCCC[C@@H]1NC(=O)[C@H](Cc2ccn(C)n2)NC(=O)[C@H](C)N(C)C(=O)[C@H](Cc2ccccc2)OC(=O)C23CC(CNC(=O)[C@H](Cc4ccccc4)N(C)C(=O)[C@H](CCCC)NC(=O)[C@H](Cc4ccccc4F)NC1=O)(C2)C3` [compound 319, cyclo(FLac-NMeA-MePyzAla-Nle-Phe2F-Nle-NMeF-amBCP)] (cyclo([NMeA][X57][Nle][Phe(2-F)][Nle][NMeF][X1][PhLac])): 5070 nM; `CCCCC[C@@H]1NC(=O)[C@H](Cc2ccc(OC)cc2)NC(=O)[C@H](CC2CCC2)NC(=O)[C@H](Cc2cccnc2)NC(=O)[C@H](CCCNC(=N)N)NC(=O)[C@H](Cc2ccccc2)NC(=O)CSC[C@@](C)(C(N)=O)NC(=O)[C@H](Cc2ccc(C)nc2)N(C)C1=O` [compound 377, cyclo(F-R-3Pal-cBuA-TyrOMe-Ahp-NMe3Pal4Me-aMeCl-ClAc)] ({CH2CO}-FR[3Pal][Cba]Y(Me)[Ahp(2)][NMe3Pal(6-Me)][αMeC]-NH2; thioether N-8): 8.11 nM.

Compound `CCCC[C@@H]1NC(=O)[C@H](Cc2ccc(CN)cc2)NC(=O)[C@H](CCCNC(=N)N)NC(=O)[C@H](Cc2cccc3ccccc23)NC(=O)CSC[C@](C)(C(=O)O)NC(=O)[C@H](Cc2ccccc2)N(C)C(=O)[C@H](CCCC)NC(=O)[C@H](Cc2ccc(O)cc2)NC1=O` [compound 144, cyclo(1Nal-R-Phe4CH2NH2-Nle-Y-Nle-NMeF-daMeC-ClAc)] ({CH2CO}-[1Nal]R[Phe(4-CH2NH2)][Nle]Y[Nle][NMeF][d(αMeC)]-OH; thioether N-8) came in with an EC50 of 1460 nM. On the same count and under the same terms, next, `CC(C)CC[C@@H]1NC(=O)[C@H](Cc2ccccc2F)NC(=O)[C@H](CC23CC(C2)C3)NC(=O)[C@H](Cc2cncnc2)NC(=O)[C@H](C)N(C)C(=O)[C@H](Cc2ccccc2)OC(=O)C23CC(CNC(=O)[C@H](Cc4ccccc4)N(C)C1=O)(C2)C3` [compound 272, cyclo(FLac-NMeA-PyrimAla-AlaPent-Phe2F-hL-NMeF-amBCP)] (cyclo([NMeA][Ala(pyrimidin-5-yl)][Ala(1-bicyclo(1.1.1)pentyl)][Phe(2-F)][hLeu][NMeF][X1][PhLac])): 477 nM. Same read-out and setting: next, `CCCCC[C@@H]1NC(=O)[C@H](Cc2ccc(OC)cc2)NC(=O)[C@H](CC2CCC2)NC(=O)[C@H](CCCCCN)NC(=O)[C@H](CCCNC(=N)N)NC(=O)[C@H](Cc2ccccc2)NC(=O)CSC[C@@](C)(C(N)=O)NC(=O)[C@H](Cc2ccccc2)N(C)C1=O` [compound 348, cyclo(F-R-hK-cBuA-TyrOMe-Ahp-NMeF-aMeCl-ClAc)] ({CH2CO}-FR[hLys][Cba]Y(Me)[Ahp(2)][NMeF][αMeC]-NH2; thioether N-8): 45.8 nM; `CCCC[C@@H]1NC(=O)[C@H](Cc2ccccc2F)NC(=O)[C@H](CCC(C)C)NC(=O)[C@H](Cc2cncnc2)NC(=O)[C@H](C)N(C)C(=O)[C@H](Cc2ccccc2)OC(=O)C23CC(CNC(=O)[C@H](Cc4cccnc4)N(C)C1=O)(C2)C3` [compound 127, cyclo(FLac-NMeA-PyrimAla-hL-Phe2F-Nle-NMe3Pal-amBCP)] (cyclo([NMe3Pal][X1][PhLac][NMeA][Ala(pyrimidin-5-yl)][hLeu][Phe(2-F)][Nle])): 228 nM.

Still in this experiment, the particulars now being: listed as 189.
On to `COc1ccc(C[C@@H]2NC(=O)[C@H](CC3CCC3)NC(=O)[C@H](Cc3cccnc3)NC(=O)[C@H](CCCNC(=N)N)NC(=O)[C@H](Cc3ccccc3)NC(=O)CSC[C@](C)(C(N)=O)NC(=O)[C@@H]3CCCCCCC[C@H](NC2=O)C(=O)N3C)cc1` (single isomer, unassigned) [SEQ ID NO: 189], for which the EC50 was determined as 1560 nM.

Source of the values: patent publication US20260001914A1, “MACROCYCLIC PEPTIDES TARGETING KRAS” (Merck Sharp & Dohme LLC, priority 2022, published 2026).
